Assay results: US10022453B2 (BAYER PHARMA AKTIENGESELLSCHAFT, priority 2013, dated 2018)

T1: human kinesin spindle protein KSP/Eg5 (Homo sapiens, UniProt P52732)
T1 construct: The motor domain of the human kinesin spindle protein KSP/Eg5; purchased tebu-bio/Cytoskeleton Inc 027EG01-XL
T1 sequence (P52732 18-359 limits assumed): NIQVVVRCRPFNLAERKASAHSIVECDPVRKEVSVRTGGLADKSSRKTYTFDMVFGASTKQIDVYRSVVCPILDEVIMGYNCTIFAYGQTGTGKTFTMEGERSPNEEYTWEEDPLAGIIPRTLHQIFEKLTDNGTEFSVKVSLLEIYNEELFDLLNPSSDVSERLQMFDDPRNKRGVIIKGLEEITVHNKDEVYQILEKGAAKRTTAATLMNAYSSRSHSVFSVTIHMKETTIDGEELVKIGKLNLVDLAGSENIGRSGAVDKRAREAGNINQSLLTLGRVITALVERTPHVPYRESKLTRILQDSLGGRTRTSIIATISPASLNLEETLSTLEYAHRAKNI

B1: P2D3(TPP-2196): comparative anti-TWEAKR antibody; variable domains from the patent literature, constant region added, "resulting in full-length IgGs" (protein)
light: DIVLTQSPASLAVSLGQRATISCRASKSVSTSSYSYMHWYQQKPGQPPKLLIKYTSNLESGVPARFSGSGSGTDFILNIHPVEEEDAATYYCQHSRELPWTFGGGTKLEIKRADAAPTVSIFPPSSEQLTSGGASVVCFLNNFYPKDINVKWKIDGSERQNGVLNSWTDQDSKDSTYSMSSTLTLTKDEYERHNSYTCEATHKTSTSPIVKSFNRNEC
heavy: QVSLKESGPGILQPSQTLSLTCSFSGFSLSTSGMGVSWIRQPSGKGLEWLAHIYWDDDKRYNPSLKSRLTISKDTSRNQVFLKITSVDTADTATYYCARRGPDYYGYYPMDYWGQGTSVTVSAKTTAPSVYPLAPVCGDTTGSSVTLGCLVKGYFPEPVTLTWNSGSLSSGVHTFPAVLQSDLYTLSSSVTVTSSTWPSQSITCNVAHPASSTKVDKKIEPRGPTIKPCPPCKCPAPNLLGGPSVFIFPPKIKDVLMISLSPIVTCVVVDVSEDDPDVQISWFVNNVEVHTAQTQTHREDYNSTLRVVSALPIQHQDWMSGKEFKCKVNNKDLPAPIERTISKPKGSVRAPQVYVLPPPEEEMTKKQVTLTCMVTDFMPEDIYVEWTNNGKTELNYKNTEPVLDSDGSYFMYSKLRVEKKNWVERNSYSCSVVHEGLHNHHTTKSFSRTPG
modifications: Mus Musculus

How the values were obtained:
NCI-H292 = experiment: Cytotoxic effects, MTT assay; assay type: cell-based; settings: Homo sapiens, 72 h incubation
Experimental: The cells are cultivated by a standard method, as indicated in the […] (ATCC) for the respective cell lines.
At the end of the selected incubation time, the MTT reagent is incubated with the cells for 4 h, followed by lysis of the cells overnight by addition of the detergent. […] The proliferation of cells which were not treated with test substance but were otherwise identically treated was defined as the 100% figure.

[1] = molecular target: T1, human kinesin spindle protein KSP/Eg5; experiment: Inhibition of the kinesin spindle protein KSP/Eg5 (ATPase, malachite green); assay type: biochemical; settings: 10 nM KSP motor domain, 500 μM ATP, 2 h RT
Outline: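 KSP/Eg5 motor domain (10 nM) preincubated 5 min at RT with 50 μg/ml taxol-stabilized bovine or porcine microtubules in 15 mM PIPES pH 6.8, 5 mM MgCl2, 10 mM DTT. IC50 = mean of three experiments.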

[2] = Cell permeability, flux assay using Caco-2 cells; settings: human, Caco-2
NCI-H292 tumour model = experiment: Anti-EGFR ADCs in the NCI-H292 tumour model on single treatment; assay type: in vivo, female NMRI-nude mice; settings: 2.5 mg/kg once on day 9; day 25
Experimental: Growth Inhibition/Regression of Experimental Tumours in the Mouse
The tumour area is determined as length×width.
When after the end of the treatment all groups of the experiment are terminated at the same time, the tumours can be removed and weighed.
C-6c. Efficacy of the Anti-EGFR Antibody Drug Conjugates in the NCI-H292 Tumour Model on Single Treatment
After the treatment, the tumour growth is monitored up to day 25.

[3] = molecular target: T2, recombinant human TWEAKR protein (TPP-2305) (Homo sapiens, UniProt Q9NP84); experiment: Binding affinities by Biacore analysis; settings: monovalent
T2 construct: purchased Fitzgerald Inc 30R-AT080
Experimental: Determination of Binding Affinities by Biacore Analysis:
Binding affinities of anti-TWEAKR antibodies were examined using surface plasmon resonance analysis on a Biacore T100 instrument (GE Healthcare Biacore, Inc.). The antibodies were immobilized on a CM5 sensor chip using an indirect capture reagent, anti-human IgG(Fc). […] Anti-TWEAKR antibodies were injected at a concentration of 10 μg/ml at […] for 10 sec.
Sensorgrams were generated after in-line reference cell correction, followed by subtraction of the buffer sample. The dissociation constant (KD) was calculated based on the ratio of association (kon) and dissociation (koff) constants, obtained by fitting sensorgrams using a 1:1 first order binding model.

Row | ka [3] | kd [3] | Kd ([3]; read-out: KD (n M )) | Molecule | IC50 (NCI-H292) | IC50 [1] | Papp B→A at 2 h [2] | efflux ratio at 2 h [2] | T/C area (NCI-H292 tumour model) | T/C weight (NCI-H292 tumour model)
1 | – | – | – | CC(C)(C)[C@H](c1cc(-c2cc(F)ccc2F)cn1Cc1ccccc1)N(CC[C@H](N)C(=O)N[C@H]1CC[C@@H](C(=O)NCCN2C(=O)CC(SC[C@H](N)C(=O)O)C2=O)C1)C(=O)CO.O=C(O)C(F)(F)F (stereo partly drawn) [Example 157, S-{1-[2-({[(1R,3S)-3-({(2S)-2-Amino-4-[{(1R)-1-[1-benzyl-4-(2,5-difluorophenyl)-1H-pyrrol-2-yl]-2,2-dimethylpropyl}(glycoloyl)amino]butanoyl}amino)cyclopentyl]carbonyl}amino)ethyl]-2,5-dioxopyrrolidin-3-yl}-L-cysteine/trifluoroacetic acid (1:1)] | ≥ 0.5 µM | 0.00961 µM | 7.7 nm/s | 7.2 | – | –
2 | – | – | – | C[C@@H](NC(=O)[C@@H](N)CCN(C(=O)CO)[C@@H](c1nc(-c2cc(F)ccc2F)cn1Cc1ccccc1)C(C)(C)C)C(=O)NCCCC[C@H](N)C(=O)O.O=C(O)C(F)(F)F [Example 159, N^6-(N-{(2S)-2-Amino-4-[{(1R)-1-[1-benzyl-4-(2,5-difluorophenyl)-1H-imidazol-2-yl]-2,2-dimethylpropyl}(glycoloyl)amino]butanoyl}-D-alanyl)-L-lysine/trifluoroacetic acid (1:1)] | 0.114 µM | 0.000311 µM | 7 nm/s | 6.1 | – | –
3 | – | – | – | CC(C)[C@H](NC(=O)CCCCCN1C(=O)CC(SC[C@H](N)C(=O)O)C1=O)C(=O)N[C@@H](C)C(=O)N[C@@H](CCCCNC(=O)CCNC(=O)[C@@H](N)CCN(C(=O)CO)[C@@H](c1cc(-c2cc(F)ccc2F)cn1Cc1ccccc1)C(C)(C)C)C(=O)O (stereo partly drawn) [Example 160, N^6-(N-{(2S)-2-Amino-4-[{(1R)-1-[1-benzyl-4-(2,5-difluorophenyl)-1H-pyrrol-2-yl]-2,2-dimethylpropyl}(glycoloyl)amino]butanoyl}-beta-alanyl)-N^2-N-{[6-(3-{[(2R)-2-amino-2-carboxyethyl]sulfanyl}-2,5-dioxopyrrolidin-1-yl)hexanoyl]-L-valyl-L-alanyl}-L-lysine/trifluoroacetic acid (1:1)] | ≥ 0.5 µM | 0.000681 µM | 1.6 nm/s | 1 | – | –
4 | – | – | – | CC(C)(C)[C@H](c1cc(-c2cc(F)ccc2F)cn1Cc1ccccc1)N(CC[C@H](N)C(=O)NCCN)C(=O)CO.O=C(O)C(F)(F)F [Example 198] | 0.0195 µM | 0.0107 µM | 519 nm/s | 34 | – | –
5 | – | – | – | CC(C)(C)[C@H](c1cc(-c2cc(F)ccc2F)cn1Cc1ccccc1)N(CCCN)C(=O)CSC[C@H](NC(=O)CCOCCOCCOCCOCCNC(=O)CCN1C(=O)CC(SC[C@H](N)C(=O)O)C1=O)C(=O)O.O=C(O)C(F)(F)F.O=C(O)C(F)(F)F (stereo partly drawn) [Example 226, (2R)-22-[(3R/S)-3-{[(2R)-2-Amino-2-carboxyethyl]sulphanyl}-2,5-dioxopyrrolidin-1-yl]-2-[({2-[(3-aminopropyl){(1R)-1-[1-benzyl-4-(2,5-difluorophenyl)-1H-pyrrol-2-yl]-2,2-dimethylpropyl}amino]-2-oxoethyl}sulphanyl)methyl]-4,20-dioxo-7,10,13,16-tetraoxa-3,19-diazadocosan-1-oic acid/trifluoroacetic (1:2)] | 0.222 µM | 0.00149 µM | 3 nm/s | 0.2 | – | –
6 | – | – | – | CC(C)(C)[C@H](c1cc(-c2cc(F)ccc2F)cn1Cc1ccccc1)N(CCCN)C(=O)CSCCC(N)C(=O)O.O=C(O)C(F)(F)F.O=C(O)C(F)(F)F (stereo partly drawn) [Example 232, S-{2-[(3-Aminopropyl){(1R)-1-[1-benzyl-4-(2,5-difluorophenyl)-1H-pyrrol-2-yl]-2,2-dimethylpropyl}amino]-2-oxoethyl}homocysteine/trifluoroacetic acid (1:2)] | 0.0155 µM | 0.0022 µM | 49 nm/s | 14 | – | –
7 | – | – | – | CC(C)(C)[C@H](c1nc(-c2cc(F)ccc2F)cn1Cc1ccccc1)N(CCCN)C(=O)CO [toxophor A, N-(3-aminopropyl)-N-{(1R)-1-[1-benzyl-4-(2,5-difluorophenyl)-1H-imidazol-2-yl]-2,2-dimethylpropyl}-2-hydroxyacetamide] | – | – | – | – | 0.87 | 0.82
8 | – | – | – | CC(C)(C)[C@H](c1nc(-c2cc(F)ccc2F)cn1Cc1ccccc1)N(CC[C@@H](N)CF)C(=O)CO [toxophor B, N-[(3R)-3-amino-4-fluorobutyl]-N-{(1R)-1-[1-benzyl-4-(2,5-difluorophenyl)-1H-imidazol-2-yl]-2,2-dimethylpropyl}-2-hydroxyacetamide] | – | – | – | – | 0.57 | 0.40
9 | 1.32e+06 M⁻¹ s⁻¹ | 0.000564 s⁻¹ | 0.0004 µM | B1 | – | – | – | – | – | –
